Laboratory results reported in publication PMC10066365, “Nemacol is a small molecule inhibitor of C. elegans vesicular acetylcholine transporter with anthelmintic potential” (Nature Communications, 2023).
Several values for one entry are separate records, joined by “and”; a condition that tells them apart may be missing. Identical values can stand only once.

What was measured:
[1] = system: Pristionchus pacificus; experiment: Pristionchus pacificus motor disruption dose-response on solid media, 1 h; settings: for mean % any phene (coiled, jerky-Unc or paralyzed): Pristionchus pacificus young adults, mean of three biological replicates
[2] = system: C. elegans; experiment: C. elegans motor phenotype scoring on solid media (Punc/jerky-unc, coiled, paralyzed), wild-type young adults; type: in vivo, Caenorhabditis elegans; settings: for any phene, mean % fraction of young adults exhibiting any phenotype (coiled, jerky-Unc or paralyzed) / atypical locomotion (number of animals) / coiled (number of animals) / no phene (number of animals) / paralyzed (number of animals): one hour; for any phene, mean % fraction of young adults exhibiting any phenotype (coiled, jerky-Unc or paralyzed): mean of three biological replicates; for atypical locomotion (number of animals) / coiled (number of animals) / no phene (number of animals) / paralyzed (number of animals): young adults, 20 animals per trial, single replicate counts; for AVERAGES Fraction Coiled / AVERAGES Fraction Paralyzed / AVERAGES Fraction Punc: mean of 3 replicates; for Fraction Coiled / Fraction Paralyzed / Fraction Punc: single replicate

## CCC1CCC(N2CCN(c3ccc([N+](=O)[O-])cc3)CC2)CC1 (centres unmarked) [Nemacol-2]
[1]; conc 3.75, observed at one hour
  mean % any phene (coiled, jerky-Unc or paralyzed): 4.167%
[1]; conc 15, observed at one hour
  mean % any phene (coiled, jerky-Unc or paralyzed): 89.1667%
[1]; conc 60, observed at one hour
  mean % any phene (coiled, jerky-Unc or paralyzed): 100%
[1]; Pristionchus pacificus, 1 h, read-out: P. pacificus motor disruption EC50
  EC50: 8.6 ± 1.3 µM
[2]; 3.75uM
  any phene, mean % fraction of young adults exhibiting any phenotype (coiled, jerky-Unc or paralyzed): 29.1667%
  atypical locomotion (number of animals): 5 and 8 and 2 and 3 and 9
  coiled (number of animals): 0
  no phene (number of animals): 15 and 12 and 18 and 17 and 11
  paralyzed (number of animals): 0
[2]; 15 μM, 30 min, adults
  NP (number of animals): 5 and 7 and 10
  P (number of animals): 0
  Punc (number of animals): 10 and 9 and 8
  AVERAGES Fraction Coiled: 0.0926
  AVERAGES Fraction Paralyzed: 0.0
  AVERAGES Fraction Punc: 0.5
  Fraction Coiled: 0.167 and 0.111 and 0.0
  Fraction Paralyzed: 0.0
  Fraction Punc: 0.556 and 0.5 and 0.444
[2]; 15 μM, 60 min, adults
  C2 (number of animals): 2 and 1
  P (number of animals): 0
  Punc (number of animals): 14 and 15
  AVERAGES Fraction Coiled: 0.13
  AVERAGES Fraction Paralyzed: 0.0
  AVERAGES Fraction Punc: 0.8
  Fraction Coiled: 0.111 and 0.167
  Fraction Paralyzed: 0.0
  Fraction Punc: 0.8
[2]; 15 μM, 90 min, adults
  C2 (number of animals): 1 and 2
  P (number of animals): 0
  Punc (number of animals): 15 and 11
  AVERAGES Fraction Coiled: 0.113
  AVERAGES Fraction Paralyzed: 0.0
  AVERAGES Fraction Punc: 0.8
  Fraction Coiled: 0.111 and 0.118
  Fraction Paralyzed: 0.0
  Fraction Punc: 0.8 and 0.647
[2]; 15 μM, 120 min, adults
  Punc (number of animals): 11 and 7
  AVERAGES Fraction Coiled: 0.0741
  AVERAGES Fraction Paralyzed: 0.0185
  AVERAGES Fraction Punc: 0.537
  Fraction Coiled: 0.0556 and 0.111
  Fraction Paralyzed: 0.0 and 0.0556
  Fraction Punc: 0.6 and 0.4
[2]; 15 μM, 240 min, adults
  C1 (number of animals): 0
  C2 (number of animals): 0
  NP (number of animals): 8 and 12 and 15
  P (number of animals): 0
  AVERAGES Fraction Coiled: 0.037
  AVERAGES Fraction Paralyzed: 0.0741
  AVERAGES Fraction Punc: 0.6
  Fraction Coiled: 0.0 and 0.111
  Fraction Paralyzed: 0.0 and 0.111
  Fraction Punc: 0.556 and 0.6
[2]; 15 μM, 360 min, adults
  C1 (number of animals): 0
  NP (number of animals): 14 and 9 and 17
  AVERAGES Fraction Coiled: 0.037
  AVERAGES Fraction Paralyzed: 0.0185
  AVERAGES Fraction Punc: 0.2
  Fraction Coiled: 0.0 and 0.111
  Fraction Paralyzed: 0.0 and 0.0556
  Fraction Punc: 0.222 and 0.333 and 0.0556
[2]; 15 μM, next day, adults
  Next Day Animals alive (moving fine): alive, recovered
[2]; 15uM
  any phene, mean % fraction of young adults exhibiting any phenotype (coiled, jerky-Unc or paralyzed): 95.873%
  atypical locomotion (number of animals): 10 and 11 and 18 and 13
  coiled (number of animals): 5 and 2 and 4
  no phene (number of animals): 0 and 2 and 1
  paralyzed (number of animals): 5 and 2 and 0 and 3
[2]; 30 μM, 30 min, adults
  C1 (number of animals): 3 and 2
  Punc (number of animals): 10 and 11 and 16
  AVERAGES Fraction Coiled: 0.246
  AVERAGES Fraction Paralyzed: 0.0185
  AVERAGES Fraction Punc: 0.7
  Fraction Coiled: 0.333 and 0.3 and 0.111
  Fraction Paralyzed: 0.0556 and 0.0
  Fraction Punc: 0.556 and 0.647 and 0.9
[2]; 30 μM, 60 min, adults
  NP (number of animals): 0
  Punc (number of animals): 7 and 8 and 13
  AVERAGES Fraction Coiled: 0.3
  AVERAGES Fraction Paralyzed: 0.167
  AVERAGES Fraction Punc: 0.5
  Fraction Coiled: 0.4 and 0.333 and 0.222
  Fraction Paralyzed: 0.222 and 0.0556
  Fraction Punc: 0.4 and 0.444 and 0.7
[2]; 30 μM, 90 min, adults
  NP (number of animals): 0
  P (number of animals): 5 and 3
  Punc (number of animals): 8 and 10 and 12
  AVERAGES Fraction Coiled: 0.241
  AVERAGES Fraction Paralyzed: 0.2
  AVERAGES Fraction Punc: 0.556
  Fraction Coiled: 0.278 and 0.167
  Fraction Paralyzed: 0.278 and 0.167
  Fraction Punc: 0.444 and 0.556 and 0.667
[2]; 30 μM, 120 min, adults
  C1 (number of animals): 3 and 2
  C2 (number of animals): 1 and 2
  NP (number of animals): 0
  AVERAGES Fraction Coiled: 0.2
  AVERAGES Fraction Paralyzed: 0.278
  AVERAGES Fraction Punc: 0.5
  Fraction Coiled: 0.222 and 0.167
  Fraction Paralyzed: 0.556 and 0.222 and 0.0556
  Fraction Punc: 0.222 and 0.6 and 0.7
[2]; 30 μM, 240 min, adults
  NP (number of animals): 2 and 3 and 4
  P (number of animals): 4 and 2
  Punc (number of animals): 11 and 12
  AVERAGES Fraction Coiled: 0.0556
  AVERAGES Fraction Paralyzed: 0.148
  AVERAGES Fraction Punc: 0.6
  Fraction Coiled: 0.0556 and 0.111 and 0.0
  Fraction Paralyzed: 0.222 and 0.111
  Fraction Punc: 0.6 and 0.667
[2]; 30 μM, 360 min, adults
  C2 (number of animals): 0
  NP (number of animals): 6 and 9 and 10
  Punc (number of animals): 5 and 7 and 8
  AVERAGES Fraction Coiled: 0.0196
  AVERAGES Fraction Paralyzed: 0.135
  AVERAGES Fraction Punc: 0.376
  Fraction Coiled: 0.0588 and 0.0
  Fraction Paralyzed: 0.3 and 0.111 and 0.0
  Fraction Punc: 0.3 and 0.4 and 0.444
[2]; 60 μM, 30 min, adults
  C1 (number of animals): 3 and 4
  C2 (number of animals): 2
  NP (number of animals): 0
  Punc (number of animals): 7 and 10 and 12
  AVERAGES Fraction Coiled: 0.3
  AVERAGES Fraction Paralyzed: 0.154
  AVERAGES Fraction Punc: 0.545
  Fraction Coiled: 0.3 and 0.333 and 0.278
  Fraction Paralyzed: 0.3 and 0.111 and 0.0556
  Fraction Punc: 0.4 and 0.556 and 0.667
[2]; 60 μM, 60 min, adults
  C2 (number of animals): 2 and 4 and 3
  NP (number of animals): 0
  P (number of animals): 9 and 7 and 8
  Punc (number of animals): 4 and 6
  AVERAGES Fraction Coiled: 0.259
  AVERAGES Fraction Paralyzed: 0.444
  AVERAGES Fraction Punc: 0.3
  Fraction Coiled: 0.278 and 0.222
  Fraction Paralyzed: 0.5 and 0.4 and 0.444
  Fraction Punc: 0.222 and 0.333
[2]; 60 μM, 90 min, adults
  C1 (number of animals): 3 and 4
  C2 (number of animals): 3 and 4
  NP (number of animals): 0
  AVERAGES Fraction Coiled: 0.37
  AVERAGES Fraction Paralyzed: 0.426
  AVERAGES Fraction Punc: 0.2
  Fraction Coiled: 0.333 and 0.4
  Fraction Paralyzed: 0.6 and 0.222 and 0.444
  Fraction Punc: 0.0556 and 0.4 and 0.167
[2]; 60 μM, 120 min, adults
  C1 (number of animals): 2
  NP (number of animals): 0
  AVERAGES Fraction Coiled: 0.3
  AVERAGES Fraction Paralyzed: 0.4
  AVERAGES Fraction Punc: 0.3
  Fraction Coiled: 0.222 and 0.444
  Fraction Paralyzed: 0.6 and 0.333 and 0.278
  Fraction Punc: 0.167 and 0.444 and 0.278
[2]; 60 μM, 240 min, adults
  NP (number of animals): 0
  AVERAGES Fraction Coiled: 0.167
  AVERAGES Fraction Paralyzed: 0.352
  AVERAGES Fraction Punc: 0.5
  Fraction Coiled: 0.167
  Fraction Paralyzed: 0.6 and 0.222
  Fraction Punc: 0.222 and 0.6
[2]; 60 μM, 360 min, adults
  Punc (number of animals): 6 and 11 and 10
  Remark on animals at 360 min: look dead
  AVERAGES Fraction Coiled: 0.0556
  AVERAGES Fraction Paralyzed: 0.4
  AVERAGES Fraction Punc: 0.5
  Fraction Coiled: 0.0556 and 0.111 and 0.0
  Fraction Paralyzed: 0.6 and 0.278
  Fraction Punc: 0.333 and 0.6 and 0.556
[2]; 60uM
  atypical locomotion (number of animals): 3 and 6 and 1
  coiled (number of animals): 9 and 6 and 3 and 1
  no phene (number of animals): 0
  paralyzed (number of animals): 8 and 14 and 18
[2]; Caenorhabditis elegans, 1 h, Fig. 1, dose-response at 60 min, wild-type young adults, +/- 95% CI, read-out: EC50
  EC50: 6.6 ± 0.4 µM
